Measurements taken from paper PMC12491715 (Acta Pharmaceutica Sinica. B, 2025).

How the values were obtained:
hBChE = hBChE (Homo sapiens, UniProt P06276); assay: ChE IC50 determination, method of Ellman, hBChE; assay type: biochemical
Method: The inhibitory potencies of the compounds against the ChEs were determined using the method of Ellman following the procedure described previously. Briefly, compound stock solutions in DMSO were incubated with Ellman’s reagent and ChEs (final concentrations: 370 μmol/L Ellman’s reagent, approximately 1 nmol/L or 50 pmol/L hBChE or hAChE, respectively) in 0.1 mol/L sodium phosphate pH 8.0 for 5 min at 20 °C. For time-dependency measurements, the pre-incubation time was varied (1, 5, 15, 30 or 60 min). The reactions were started by the addition of the substrate (final concentration, 500 μmol/L butyrylthiocholine iodide or acetylthiocholine iodide for hBChE and hAChE, respectively). The final content of DMSO was always 1%. The increase in absorbance at 412 nm was monitored for 2 min using a 96-well microplate reader (Synergy HT, BioTek Instruments, VT, USA). The initial velocities in the presence (vi) and absence (v0) of the test compounds were calculated. The inhibitory potencies were expressed as the residual activities, according to Eq. (1):(1) RA = vi / v0
For IC50 determinations, at least seven different concentrations for each compound were used. The IC50 values were obtained by plotting the residual ChE activities against the applied inhibitor concentrations, with the experimental data fitted to a four-parameter logistic function (GraphPad Prism 9.4). Tacrine and donepezil were used as positive controls.

[1] = tested on: ICR mice icv-injected with Aβ1–42; assay: Novel object recognition, mice model with icv-injection of Aβ1–42; assay type: in vivo; details: ip, once a day, vs rivastigmine 4
Method: (§1) Mice model with icv-injection of Aβ1–42 The experiments were performed using ICR male mice (8–10 weeks old, weight 18–20 g), which were purchased from Shanghai Bikai Animal Breeding Factory (Shanghai, China). Animals were housed in cages (6 mice per cage) at a constant temperature of 25±2 °C, humidity of 55%±10% and a light/dark (12:12) cycle. The mice had unlimited access to food and water prior to the experiment. Specified conditions for the maintenance of mice were ensured throughout the experiments, including tree bedding (Yizheng Anlimao Biotechnology Co., Ltd., China) and lab feed (Zimao, China). For behavioural tests, mice were selected randomly, each group consisted of 6 mice. The experiments were performed between 9 am and 3 pm.
(§2) According to the literature procedure, recombinant human hexafluoroisopropanol-pretreated Aβ1–42 from Merck Millipore (Darmstadt, Germany) was dissolved in 1% DMSO, diluted with saline to the final concentration of 2 mg/mL, and incubated for 72 h to form oligomers. […]
Novel object recognition experiment was performed in a maze with dimensions 50 cm×50 cm×40 cm, with black cuboid (4 cm×4 cm×5 cm) as the old object, and white cylinder (2r = 5 cm, h = 5 cm) as the new object. […] Time spent exploring new and old objects was recorded using ANY-maze software and processed using GraphPad Prism 5.

[2] = tested on: ICR mice icv-injected with Aβ1–42; assay: Morris water maze, mice model with icv-injection of Aβ1–42; assay type: in vivo; details: 1–5 mg/kg, ip, once a day; comparable to rivastigmine 4 (1 mg/kg, ip)
Method: as §1, §2
Behavioural assays The Morris water maze was placed in a lighted room at 25 °C, and it was divided into four equal quadrants. […] The time spent searching for the missing platform was recorded by Xeye Aba image processing system (Beijing Zhongshi Dichuang Technology Development Co., Ltd.) and analysed by GraphPad Prism 5.

Chain of hBChE (P06276 29-602): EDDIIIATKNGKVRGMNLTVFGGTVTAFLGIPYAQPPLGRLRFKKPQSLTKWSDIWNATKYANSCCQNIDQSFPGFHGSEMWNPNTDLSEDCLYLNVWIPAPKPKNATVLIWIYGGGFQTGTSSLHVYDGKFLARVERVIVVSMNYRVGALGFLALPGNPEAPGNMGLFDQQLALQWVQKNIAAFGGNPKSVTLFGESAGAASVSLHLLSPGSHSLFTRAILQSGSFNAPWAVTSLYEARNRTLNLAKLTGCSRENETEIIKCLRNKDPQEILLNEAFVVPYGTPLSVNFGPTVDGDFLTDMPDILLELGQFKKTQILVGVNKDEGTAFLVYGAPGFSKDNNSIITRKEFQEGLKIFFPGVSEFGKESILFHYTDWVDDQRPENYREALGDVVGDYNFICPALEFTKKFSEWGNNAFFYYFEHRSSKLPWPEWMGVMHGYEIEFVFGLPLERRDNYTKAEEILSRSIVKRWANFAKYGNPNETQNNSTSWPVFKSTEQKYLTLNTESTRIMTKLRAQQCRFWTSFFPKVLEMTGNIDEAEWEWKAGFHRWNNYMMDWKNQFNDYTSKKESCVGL

In the case of `CCN(CC)C(=O)n1cnc(C2(CC)Cc3ccccc3C2)c1` [Compound 8, N,N-Diethyl-4-(2-ethylindan-2-yl)-1H-imidazole-1-carboxamide], the IC50 (hBChE; after 5 min preincubation, read-out: hBChE IC50±SD) is reported as 1520 ± 90 nM, the “hBChE time-dependency observed: Yes/No” value (hBChE; pre-incubation time varied) is reported as “Yes” and the “recognition memory in novel object recognition task” value [1] is reported as “restored recognition memory comparable or better than 4”. For the same compound, the “performance in Morris water maze” value [2] was “outperformed saline-treated mice (model)”.
